Data as given in patent US20240092784A1, “CONDENSED HETEROCYCLIC COMPOUND” (NISSAN CHEMICAL CORPORATION, priority 2020, published 2024).

Each compound was assayed against human SPR (Homo sapiens (Human), UniProt P35270) (assay: Evaluation Example 2: Measurement of human SPR inhibitory activity (seven concentrations, sepiapterin absorbance at 420 nm)). Settings: Evaluation Example 2, seven concentrations 0.14 nM to 100 nM, 240 minutes at room temperature, read-out: IC50.
Sequence of human SPR (P35270 whole entry): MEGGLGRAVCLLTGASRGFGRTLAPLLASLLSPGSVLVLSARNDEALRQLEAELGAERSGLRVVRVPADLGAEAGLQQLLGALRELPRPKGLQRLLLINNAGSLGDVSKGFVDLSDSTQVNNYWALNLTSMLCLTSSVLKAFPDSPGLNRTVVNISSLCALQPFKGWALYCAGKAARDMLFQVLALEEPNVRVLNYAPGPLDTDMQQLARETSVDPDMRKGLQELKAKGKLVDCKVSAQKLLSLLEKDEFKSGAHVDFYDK
Format: biochemical
How it was run: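 Reactions ran 240 min at room temperature in 100 mM Tris-HCl pH 7.5 with 0.01% BSA. They contained tag-cleaved, E. coli-expressed full-length human SPR (diluted to 150 ng/mL), seven compound concentrations from 0.14 to 100 nM, and sepiapterin/NADPH added as a 120 μM/160 μM solution. Inhibition was calculated from sepiapterin absorbance at 420 nm.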
Compound CC(C)Cn1c(=O)c(C(=O)NC2CC2)c(O)n2ncc(/C=C/C(=O)N3CCC[C@@H](CO)C3)c12 [compound 520, (R,E)-N-Cyclopropyl-7-hydroxy-3-(3-(3-(hydroxymethyl)piperidin-1-yl)-3-oxoprop-1-en-1-yl)-4-isobutyl-5-oxo-4,5-dihydropyrazolo[1,5-a]pyrimidine-6-carboxamide] has an IC50 of 0.77 nM.
Compound CC(C)Cn1c(=O)c(C(=O)NC2CC2)c(O)n2ncc(/C=C/C(=O)N3CCO[C@H](CO)C3)c12 [compound 521, (S,E)-N-Cyclopropyl-7-hydroxy-3-(3-(2-(hydroxymethyl)morpholino)-3-oxoprop-1-en-1-yl)-4-isobutyl-5-oxo-4,5-dihydropyrazolo[1,5-a]pyrimidine-6-carboxamide] has an IC50 of 0.59 nM.
For CCN(C)C(=O)/C=C/c1cnn2c(O)c(C(=O)NC3CC3)c(=O)n(CC(C)C)c12 [compound 522, (E)-N-Cyclopropyl-3-(3-(ethyl(methyl)amino)-3-oxoprop-1-en-1-yl)-7-hydroxy-4-isobutyl-5-oxo-4,5-dihydropyrazolo[1,5-a]pyrimidine-6-carboxamide], the IC50 was 0.78 nM.
CC(C)Cn1c(=O)c(C(=O)NC2CC2)c(O)n2ncc(/C=C/C(=O)N(C)C3CCOCC3)c12 [compound 523, (E)-N-Cyclopropyl-7-hydroxy-4-isobutyl-3-(3-(methyl(tetrahydro-2H-pyran-4-yl)amino)-3-oxoprop-1-en-1-yl)-5-oxo-4,5-dihydropyrazolo[1,5-a]pyrimidine-6-carboxamide] gave an IC50 of 0.71 nM.
Work on CC(C)Cn1c(=O)c(C(=O)NC2CC2)c(O)n2ncc(/C=C/C(=O)N(C)CCC#N)c12 [compound 524, (E)-3-(3-((2-Cyanoethyl)(methyl)amino)-3-oxoprop-1-en-1-yl)-N-cyclopropyl-7-hydroxy-4-isobutyl-5-oxo-4,5-dihydropyrazolo[1,5-a]pyrimidine-6-carboxamide] yielded an IC50 of 0.72 nM.
Work on CC(C)Cn1c(=O)c(C(=O)NC2CC2)c(O)n2ncc(/C=C/C(=O)N3CCOC[C@@H]3CO)c12 [compound 525, (S,E)-N-Cyclopropyl-7-hydroxy-3-(3-(3-(hydroxymethyl)morpholino)-3-oxoprop-1-en-1-yl)-4-isobutyl-5-oxo-4,5-dihydropyrazolo[1,5-a]pyrimidine-6-carboxamide] yielded an IC50 of 0.65 nM.
CC(C)Cn1c(=O)c(C(=O)NC2CC2)c(O)n2ncc(/C=C/C(=O)N3CCOC[C@H]3CO)c12 [compound 526, (R,E)-N-Cyclopropyl-7-hydroxy-3-(3-(3-(hydroxymethyl)morpholino)-3-oxoprop-1-en-1-yl)-4-isobutyl-5-oxo-4,5-dihydropyrazolo[1,5-a]pyrimidine-6-carboxamide] was tested, and the IC50 was 0.67 nM.
CC(C)Cn1c(=O)c(C(=O)NC2CCC2)c(O)n2ncc(/C=C/C(=O)N3CCOCC3)c12 [compound 527, (E)-N-Cyclobutyl-7-hydroxy-4-isobutyl-3-(3-morpholino-3-oxoprop-1-en-1-yl)-5-oxo-4,5-dihydropyrazolo[1,5-a]pyrimidine-6-carboxamide] showed an IC50 of 0.74 nM.
Work on CC(C)Cn1c(=O)c(C(=O)NC2CC2)c(O)n2ncc(/C=C/C(=O)N3CCC[C@H](CO)C3)c12 [compound 528, (S,E)-N-Cyclopropyl-7-hydroxy-3-(3-(3-(hydroxymethyl)piperidin-1-yl)-3-oxoprop-1-en-1-yl)-4-isobutyl-5-oxo-4,5-dihydropyrazolo[1,5-a]pyrimidine-6-carboxamide] yielded an IC50 of 0.85 nM.
Compound CC(C)Cn1c(=O)c(C(=O)NC2CC2)c(O)n2ncc(/C=C/C(=O)N3CCO[C@@H](C(F)(F)F)C3)c12 [compound 529, (R,E)-N-Cyclopropyl-7-hydroxy-4-isobutyl-5-oxo-3-(3-oxo-3-(2-(trifluoromethyl)morpholino)prop-1-en-1-yl)-4,5-dihydropyrazolo[1,5-a]pyrimidine-6-carboxamide] has an IC50 of 1.03 nM.
CC(C)Cn1c(=O)c(C(=O)NC2CC2)c(O)n2ncc(/C=C/C(=O)N3CCO[C@H](C(F)(F)F)C3)c12 [compound 530, (S,E)-N-Cyclopropyl-7-hydroxy-4-isobutyl-5-oxo-3-(3-oxo-3-(2-(trifluoromethyl)morpholino)prop-1-en-1-yl)-4,5-dihydropyrazolo[1,5-a]pyrimidine-6-carboxamide] showed an IC50 of 1.14 nM.
In the case of COC[C@H]1COCCN1C(=O)/C=C/c1cnn2c(O)c(C(=O)NC3CC3)c(=O)n(CC(C)C)c12 [compound 531, (S,E)-N-Cyclopropyl-7-hydroxy-4-isobutyl-3-(3-(3-(methoxymethyl)morpholino)-3-oxoprop-1-en-1-yl)-5-oxo-4,5-dihydropyrazolo[1,5-a]pyrimidine-6-carboxamide], the IC50 is reported as 0.73 nM.
COC[C@@H]1COCCN1C(=O)/C=C/c1cnn2c(O)c(C(=O)NC3CC3)c(=O)n(CC(C)C)c12 [compound 532, (R,E)-N-Cyclopropyl-7-hydroxy-4-isobutyl-3-(3-(3-(methoxymethyl)morpholino)-3-oxoprop-1-en-1-yl)-5-oxo-4,5-dihydropyrazolo[1,5-a]pyrimidine-6-carboxamide] was tested, and the IC50 was 0.55 nM.
With CC(C)Cn1c(=O)c(C(=O)NC2CC2)c(O)n2ncc(/C=C/C(=O)N3C4CCC3COC4)c12 [compound 533, (E)-3-(3-(3-Oxa-8-azabicyclo[3.2.1]octan-8-yl)-3-oxoprop-1-en-1-yl)-N-cyclopropyl-7-hydroxy-4-isobutyl-5-oxo-4,5-dihydropyrazolo[1,5-a]pyrimidine-6-carboxamide] the IC50 was 0.64 nM.
CC(C)Cn1c(=O)c(C(=O)NC2CC2)c(O)n2ncc(/C=C/C(=O)N3CCOC[C@H]3C(F)(F)F)c12 [compound 534, (S,E)-N-Cyclopropyl-7-hydroxy-4-isobutyl-5-oxo-3-(3-oxo-3-(3-(trifluoromethyl)morpholino)prop-1-en-1-yl)-4,5-dihydropyrazolo[1,5-a]pyrimidine-6-carboxamide] gave an IC50 of 0.87 nM.
Work on CC(C)Cn1c(=O)c(C(=O)NC2CC2)c(O)n2ncc(/C=C/C(=O)N3CCCCO3)c12 [compound 535, (E)-3-(3-(1,2-Oxazinan-2-yl)-3-oxoprop-1-en-1-yl)-N-cyclopropyl-7-hydroxy-4-isobutyl-5-oxo-4,5-dihydropyrazolo[1,5-a]pyrimidine-6-carboxamide] yielded an IC50 of 0.92 nM.
With CC(C)Cn1c(=O)c(C(=O)NC2CC2)c(O)n2ncc(/C=C/C(=O)N3CCC[C@H]3C)c12 [compound 536, (R,E)-N-Cyclopropyl-7-hydroxy-4-isobutyl-3-(3-(2-methylpyrrolidine-1-yl)-3-oxoprop-1-en-1-yl)-5-oxo-4,5-dihydropyrazolo[1,5-a]pyrimidine-6-carboxamide] the IC50 was 0.92 nM.
Work on CC(C)Cn1c(=O)c(C(=O)NC2CC2)c(O)n2ncc(/C=C/C(=O)N3CCCC3(C)C)c12 [compound 537, (E)-N-Cyclopropyl-3-(3-(2,2-dimethylpyrrolidin-1-yl)-3-oxoprop-1-en-1-yl)-7-hydroxy-4-isobutyl-5-oxo-4,5-dihydropyrazolo[1,5-a]pyrimidine-6-carboxamide] yielded an IC50 of 0.86 nM.
CC(C)Cn1c(=O)c(C(=O)NC2CC2)c(O)n2ncc(/C=C/C(=O)N3C[C@H]4C[C@@H]3CO4)c12 [compound 538, 3-((E)-3-((1R,4R)-2-Oxa-5-azabicyclo[2.2.1]heptan-5-yl)-3-oxoprop-1-en-1-yl)-N-cyclopropyl-7-hydroxy-4-isobutyl-5-oxo-4,5-dihydropyrazolo[1,5-a]pyrimidine-6-carboxamide] gave an IC50 of 0.69 nM.
In the case of CC(C)Cn1c(=O)c(C(=O)NC2CC2)c(O)n2ncc(/C=C/C(=O)N3C[C@@H]4C[C@H]3CO4)c12 [compound 539, 3-((E)-3-((1S,4S)-2-Oxa-5-azabicyclo[2.2.1]heptan-5-yl)-3-oxoprop-1-en-1-yl)-N-cyclopropyl-7-hydroxy-4-isobutyl-5-oxo-4,5-dihydropyrazolo[1,5-a]pyrimidine-6-carboxamide], the IC50 is reported as 0.64 nM.
For CC[C@@H]1COCCN1C(=O)/C=C/c1cnn2c(O)c(C(=O)NC3CC3)c(=O)n(CC(C)C)c12 [compound 540, (R,E)-N-Cyclopropyl-3-(3-(3-ethylmorpholino)-3-oxoprop-1-en-1-yl)-7-hydroxy-4-isobutyl-5-oxo-4,5-dihydropyrazolo[1,5-a]pyrimidine-6-carboxamide], the IC50 was 0.66 nM.
Work on CC(C)Cn1c(=O)c(C(=O)NC2CC2)c(O)n2ncc(/C=C/C(=O)N3CCOCC34CC4)c12 [compound 541, (E)-N-Cyclopropyl-7-hydroxy-4-isobutyl-5-oxo-3-(3-oxo-3-(7-oxa-4-azaspiro[2.5]octan-4-yl)prop-1-en-1-yl)-4,5-dihydropyrazolo[1,5-a]pyrimidine-6-carboxamide] yielded an IC50 of 0.82 nM.
In the case of CC(C)Cn1c(=O)c(C(=O)NC2CC2)c(O)n2ncc(/C=C/C(=O)N3C4CCCC3COC4)c12 [compound 542, (E)-3-(3-(3-Oxa-9-azabicyclo[3.3.1]nonan-9-yl)-3-oxoprop-1-en-1-yl)-N-cyclopropyl-7-hydroxy-4-isobutyl-5-oxo-4,5-dihydropyrazolo[1,5-a]pyrimidine-6-carboxamide], the IC50 is reported as 0.78 nM.
With CC(C)Cn1c(=O)c(C(=O)NC2CC2)c(O)n2ncc(/C=C/C(=O)N3CCCCCO3)c12 [compound 543, (E)-3-(3-(1,2-Oxazepan-2-yl)-3-oxoprop-1-en-1-yl)-N-cyclopropyl-7-hydroxy-4-isobutyl-5-oxo-4,5-dihydropyrazolo[1,5-a]pyrimidine-6-carboxamide] the IC50 was 0.97 nM.
Compound CC[C@H]1COCCN1C(=O)/C=C/c1cnn2c(O)c(C(=O)NC3CC3)c(=O)n(CC(C)C)c12 [compound 544, (S,E)-N-Cyclopropyl-3-(3-(3-ethylmorpholino)-3-oxoprop-1-en-1-yl)-7-hydroxy-4-isobutyl-5-oxo-4,5-dihydropyrazolo[1,5-a]pyrimidine-6-carboxamide] has an IC50 of 0.95 nM.
Compound CC(C)Cn1c(=O)c(C(=O)N[C@@H](C)C(F)(F)F)c(O)n2ncc(/C=C/C(=O)N3CCOCC3)c12 [compound 545, (S,E)-7-Hydroxy-4-isobutyl-3-(3-morpholino-3-oxoprop-1-en-1-yl)-5-oxo-N-(1,1,1-trifluoropropan-2-yl)-4,5-dihydropyrazolo[1,5-a]pyrimidine-6-carboxamide] has an IC50 of 0.66 nM.
